In the supplement of paper PMC10307832:

Columns and labels:
Assay in all cases: relative viability (nuclei count vs DMSO), 5 days (fraction); higher = more cells survive
Kobe2602 + Foretinib = compound: C1=CC(=CC=C1NC(=S)NNC2=C(C=C(C=C2[N+](=O)[O-])C(F)(F)F)[N+](=O)[O-])F [Kobe2602] + COc1cc2c(Oc3ccc(NC(=O)C4(C(=O)Nc5ccc(F)cc5)CC4)cc3F)ccnc2cc1OCCCN1CCOCC1 [Foretinib] (partner 0.25 µM)
Outline: (§1)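 Relative viability is defined as nuclei in treated wells over nuclei in vehicle wells. Duplicate plates were run and medians reported. Lung cancer cell lines in 1536-well plates were dosed by pin tool one day after seeding, with one drug or with a fixed anchor-drug dose plus five library-drug doses (not always all listed) in √10 steps, and nuclei were counted after 5 days.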

Kobe2602 + Trametinib = compound: C1=CC(=CC=C1NC(=S)NNC2=C(C=C(C=C2[N+](=O)[O-])C(F)(F)F)[N+](=O)[O-])F [Kobe2602] + CC(=O)Nc1cccc(-n2c(=O)n(C3CC3)c(=O)c3c(Nc4ccc(I)cc4F)n(C)c(=O)c(C)c32)c1 [Trametinib] (partner 0.02 µM)
Outline: as §1

Zosuquidar + Foretinib = compound: O[C@@H](COc1cccc2ncccc12)CN1CCN([C@@H]2c3ccccc3[C@@H]3[C@H](c4ccccc42)C3(F)F)CC1 [Zosuquidar] + COc1cc2c(Oc3ccc(NC(=O)C4(C(=O)Nc5ccc(F)cc5)CC4)cc3F)ccnc2cc1OCCCN1CCOCC1 [Foretinib] (partner 0.25 µM)
Outline: as §1

Kobe2602 + Tozasertib = compound: C1=CC(=CC=C1NC(=S)NNC2=C(C=C(C=C2[N+](=O)[O-])C(F)(F)F)[N+](=O)[O-])F [Kobe2602] + Cc1cc(Nc2cc(N3CCN(C)CC3)nc(Sc3ccc(NC(=O)C4CC4)cc3)n2)n[nH]1 [Tozasertib] (partner 0.1 µM)
Outline: as §1

| Cell Line | relative viability (Kobe2602 + Foretinib; first compound 0.2 µM) | relative viability (Kobe2602 + Foretinib; first compound 0.6325 µM) | relative viability (Kobe2602 + Foretinib; first compound 2 µM) | relative viability (Kobe2602 + Foretinib; first compound 6.325 µM) | relative viability (Kobe2602 + Foretinib; first compound 20 µM) | relative viability (Kobe2602 + Trametinib; first compound 0.2 µM) | relative viability (Kobe2602 + Trametinib; first compound 0.6325 µM) | relative viability (Kobe2602 + Trametinib; first compound 2 µM) | relative viability (Kobe2602 + Trametinib; first compound 6.325 µM) | relative viability (Kobe2602 + Trametinib; first compound 20 µM) | relative viability (Zosuquidar + Foretinib; first compound 0.01 µM) | relative viability (Zosuquidar + Foretinib; first compound 0.03162 µM) | relative viability (Zosuquidar + Foretinib; first compound 0.1 µM) | relative viability (Zosuquidar + Foretinib; first compound 0.3162 µM) | relative viability (Zosuquidar + Foretinib; first compound 1 µM) | relative viability (Kobe2602 + Tozasertib; first compound 0.2 µM) | relative viability (Kobe2602 + Tozasertib; first compound 0.6325 µM) | relative viability (Kobe2602 + Tozasertib; first compound 2 µM) | relative viability (Kobe2602 + Tozasertib; first compound 6.325 µM) | relative viability (Kobe2602 + Tozasertib; first compound 20 µM) |
| --- | --- | --- | --- | --- | --- | --- | --- | --- | --- | --- | --- | --- | --- | --- | --- | --- | --- | --- | --- | --- |
| NCI-H1944 | 0.891 | 0.91 | 0.847 | 0.885 | 0.976 | 0.418 | 0.409 | 0.404 | 0.442 | 0.423 | 0.774 | 0.862 | 0.898 | 0.883 | 0.824 | 0.264 | 0.267 | 0.262 | 0.245 | 0.279 |
| NCI-H322M | 0.971 | 0.98 | 0.923 | 0.959 | 0.963 | 0.555 | 0.495 | 0.5 | 0.467 | 0.521 | 0.961 | 1.19 | 0.723 | 0.983 | 0.972 | 0.518 | 0.534 | 0.493 | 0.538 | 0.533 |
| NCI-H2085 | 0.909 | 1.01 |  | 1.12 | 0.879 | 0.614 | 0.516 | 0.491 | 0.409 | 0.514 | 0.855 | 1.02 | 0.837 | 1.01 | 0.981 | 0.736 | 0.772 | 0.775 | 0.567 | 0.751 |
| RERF-LC-KJ | 0.878 | 0.952 | 0.828 | 0.777 | 0.763 | 0.839 | 0.836 | 0.864 | 0.802 | 0.525 | 0.895 | 0.926 | 0.861 | 0.923 | 0.844 | 0.492 | 0.528 | 0.473 | 0.285 | 0.271 |
| NCI-H1355 | 0.953 | 0.945 | 0.921 | 0.933 | 0.95 | 0.441 | 0.464 | 0.369 | 0.415 | 0.43 | 0.951 | 0.989 | 0.9 | 1.02 | 0.923 | 0.587 | 0.597 | 0.534 | 0.534 | 0.542 |
| NCI-H1650 | 0.998 | 1.31 | 0.962 | 1.09 | 1.59 | 0.724 | 0.525 | 0.59 | 0.536 | 0.586 | 1.12 | 1.04 | 1.21 | 1.15 | 1.49 | 0.409 | 0.337 | 0.319 | 0.24 | 0.271 |
| PC-14 | 0.962 | 0.968 | 0.922 | 0.939 | 0.911 | 0.697 | 0.693 | 0.659 | 0.823 | 0.361 | 0.99 | 0.983 | 0.952 | 0.997 | 0.952 | 0.606 | 0.562 | 0.596 | 0.602 | 0.559 |
| NCI-H1755 | 0.948 | 0.914 | 0.915 | 0.879 | 0.868 | 0.825 | 0.728 | 0.779 | 0.766 | 0.726 | 0.908 | 0.894 | 0.841 | 0.959 | 0.932 | 0.638 | 0.596 | 0.557 | 0.608 | 0.554 |
| NCI-H1651 | 0.764 | 0.89 | 0.762 | 0.776 | 0.868 | 0.822 | 0.827 | 0.847 | 0.87 | 0.875 | 0.763 | 0.845 | 0.703 | 0.863 | 0.778 | 0.683 | 0.681 | 0.621 | 0.584 | 0.774 |
| NCI-H661 | 0.869 | 1.01 | 0.99 | 1.02 | 1.03 | 0.554 | 0.594 | 0.594 | 0.622 | 0.522 | 1.05 | 0.895 | 0.885 | 1.06 | 0.988 | 0.382 | 0.34 | 0.376 | 0.376 | 0.355 |
| NCI-H358 | 0.721 | 0.756 | 0.605 | 0.698 | 0.845 | 0.138 | 0.15 | 0.135 | 0.16 | 0.141 | 0.654 | 0.615 | 0.719 | 0.598 | 0.702 | 0.0888 | 0.122 | 0.0944 | 0.109 | 0.103 |
| NCI-H1395 | 0.935 | 0.976 | 0.976 | 0.991 | 1.12 | 0.991 | 1.06 | 1.03 | 0.989 | 1.19 | 0.98 | 0.957 | 0.824 | 1.06 | 1 | 0.72 | 0.793 | 0.878 | 0.741 | 0.776 |
| HCC-15 | 0.979 | 1.09 | 0.974 | 1.09 | 0.974 | 0.34 | 0.397 | 0.362 | 0.386 | 0.387 | 1.08 | 1.08 | 0.864 | 1.04 | 1.09 | 0.351 | 0.377 | 0.299 | 0.425 | 0.431 |
| PC-3 [JPC-3] | 1.02 | 1.18 | 0.994 | 1.03 | 1.07 | 0.69 | 0.699 | 0.7 | 0.683 | 0.668 | 1.11 | 1.02 | 0.984 | 1.09 | 1.1 | 0.885 | 0.836 | 0.849 | 0.858 | 0.807 |
| HOP-62 | 1.08 | 1.16 | 1.18 | 1.1 | 1.08 | 0.446 | 0.39 | 0.355 | 0.415 | 0.415 | 1.09 | 1.25 | 1.01 | 1.1 | 1.08 | 0.399 | 0.359 | 0.418 | 0.341 | 0.335 |
| NCI-H460 | 1.07 | 1 | 0.978 | 1.02 | 0.999 |  | 0.198 | 0.183 | 0.166 | 0.111 | 0.922 | 0.987 | 0.987 | 0.969 | 0.952 | 0.342 | 0.402 | 0.411 | 0.154 | 0.0739 |
| NCI-H1793 | 0.847 | 0.803 | 0.684 | 0.728 | 0.863 | 0.437 | 0.459 | 0.449 | 0.394 | 0.399 | 0.747 | 0.914 |  | 0.896 | 0.641 | 0.279 | 0.305 | 0.292 | 0.417 | 0.278 |
| NCI-H727 | 0.855 | 0.991 | 0.919 | 1.1 | 0.873 | 0.417 | 0.408 | 0.355 |  | 0.371 | 0.774 | 0.79 | 0.774 | 0.855 | 0.908 | 0.716 | 0.583 | 0.741 | 0.702 | 0.504 |
| NCI-H838 | 0.934 | 1.13 | 0.93 | 0.971 | 1.03 | 0.516 | 0.566 | 0.49 | 0.536 | 0.466 | 1.07 | 1 | 0.995 | 1.11 | 1.07 | 0.242 | 0.249 | 0.242 | 0.255 | 0.254 |
| NCI-H1734 | 0.843 | 0.938 | 0.978 | 0.901 | 0.855 | 0.618 | 0.77 | 0.664 | 0.711 | 0.695 | 0.816 | 0.868 | 0.775 | 0.938 | 0.817 | 0.282 | 0.252 | 0.24 | 0.28 | 0.246 |
| EKVX | 1.05 | 0.753 | 0.7 | 0.839 | 1.03 | 0.38 | 0.366 | 0.288 | 0.298 | 0.319 | 0.692 | 0.734 | 0.589 | 0.954 | 0.748 | 0.391 | 0.284 | 0.362 | 0.365 | 0.278 |
| NCI-H647 | 1.13 | 1.29 | 1.16 | 1.17 | 1.12 | 0.383 | 0.474 | 0.505 | 0.425 | 0.494 | 1.21 | 1.13 | 1.32 | 1.27 | 1.02 | 0.213 | 0.315 | 0.181 | 0.192 | 0.347 |
| NCI-H2342 | 1.08 | 1.16 | 0.968 | 0.991 | 1.23 | 0.741 | 0.84 | 0.794 | 0.68 | 0.84 | 1.1 | 1.18 | 0.878 | 1 | 1.06 | 0.575 | 0.546 | 0.408 | 0.491 | 0.542 |
| LOU-NH91 | 0.95 | 0.964 | 0.954 | 0.9 | 0.92 | 0.763 | 0.793 | 0.739 | 0.793 | 0.821 | 0.882 | 0.857 |  | 0.936 | 0.91 | 0.703 | 0.703 | 0.658 | 0.685 | 0.739 |
| COR-L23 | 0.902 | 0.972 | 0.966 | 0.96 | 0.951 | 0.569 | 0.587 | 0.575 | 0.549 | 0.679 | 0.994 | 0.926 | 0.956 | 0.962 | 1.06 | 0.177 | 0.172 | 0.165 | 0.157 | 0.154 |
| NCI-H1437 | 1.28 | 1.28 | 1.15 | 1.23 | 1.09 | 0.458 | 0.463 | 0.519 | 0.603 | 0.419 | 1.28 | 1.24 | 1.16 | 1.3 | 1.31 | 0.429 | 0.403 | 0.412 | 0.322 | 0.439 |
| EPLC-272H | 0.41 | 0.937 | 0.667 | 0.668 | 0.796 | 0.263 | 0.288 | 0.304 | 0.278 | 0.299 | 0.778 | 0.683 | 0.57 | 0.817 | 0.671 | 0.224 | 0.305 | 0.291 | 0.302 | 0.409 |
